# From PubChem BioAssay AID2060605 (Molecular Pharmacology Branch, DTP, NCI, 2025)
# System: 947758-054-R-J2-PDC spheroid growth, percent test/control
# Assay: Anticancer human tumor 947758-054-R-J2-PDC patient-derived colon adenocarcinoma cell line growth inhibition [CLK]
# Details: spheroids with HUVEC and MSC; for IC50: curve of first compound; for viability, T/C: stronger effect = lower value
# In short: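 Patient-derived tumor cells grown as complex spheroids with HUVEC endothelial cells and mesenchymal stem cells, treated with drug combinations. Concentrations descend in half-log steps from near clinical Cmax, or from 10 microM if Cmax unknown.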
# 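Also: spheroids exposed to compounds for one week before readout.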
# 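For viability, T/C in this document: 100% = DMSO vehicle control wells.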
smiles,measurement,setting,value
C=C(F)C(=O)N1CCN(c2nc(OCC3CCCN3C)nc3c2CCN(c2cccc4cccc(Cl)c24)C3)CC1CC#N (configuration not stated) + CNC(=O)c1ccc(Nc2nc(OC3CCCC3)c3c(-c4ccc5nc(C)oc5c4)c[nH]c3n2)c(OC)c1,IC50,second compound 0.0316 µM,6.1 µM
same,IC50,second compound 0.1 µM,4.95 µM
same,IC50,second compound 0.316 µM,3.83 µM
same,IC50,second compound 1 µM,< 0.0316 µM
same,IC50,second compound 3.16 µM,< 0.0316 µM
same,IC50,second compound 10 µM,< 0.0316 µM
same,"viability, T/C","second compound 0.0316 µM, first compound 0.0316 µM",88.6%
same,"viability, T/C","second compound 0.0316 µM, first compound 0.1 µM",66.7%
same,"viability, T/C","second compound 0.0316 µM, first compound 0.316 µM",83.4%
same,"viability, T/C","second compound 0.0316 µM, first compound 1 µM",99.7%
same,"viability, T/C","second compound 0.0316 µM, first compound 3.16 µM",132%
same,"viability, T/C","second compound 0.0316 µM, first compound 10 µM",16.8%
same,"viability, T/C","second compound 0.1 µM, first compound 0.0316 µM",96.9%
same,"viability, T/C","second compound 0.1 µM, first compound 0.1 µM",71.1%
same,"viability, T/C","second compound 0.1 µM, first compound 0.316 µM",79.6%
same,"viability, T/C","second compound 0.1 µM, first compound 1 µM",98%
same,"viability, T/C","second compound 0.1 µM, first compound 3.16 µM",76.9%
same,"viability, T/C","second compound 0.1 µM, first compound 10 µM",7.83%
same,"viability, T/C","second compound 0.316 µM, first compound 0.0316 µM",76.9%
same,"viability, T/C","second compound 0.316 µM, first compound 0.1 µM",65.9%
same,"viability, T/C","second compound 0.316 µM, first compound 0.316 µM",57.6%
same,"viability, T/C","second compound 0.316 µM, first compound 1 µM",77.2%
same,"viability, T/C","second compound 0.316 µM, first compound 3.16 µM",59.2%
same,"viability, T/C","second compound 0.316 µM, first compound 10 µM",3.73%
same,"viability, T/C","second compound 1 µM, first compound 0.0316 µM",38.5%
same,"viability, T/C","second compound 1 µM, first compound 0.1 µM",34.6%
same,"viability, T/C","second compound 1 µM, first compound 0.316 µM",35.7%
same,"viability, T/C","second compound 1 µM, first compound 1 µM",54.8%
same,"viability, T/C","second compound 1 µM, first compound 3.16 µM",47.5%
same,"viability, T/C","second compound 1 µM, first compound 10 µM",0.18%
same,"viability, T/C","second compound 3.16 µM, first compound 0.0316 µM",41.5%
same,"viability, T/C","second compound 3.16 µM, first compound 0.1 µM",34.3%
same,"viability, T/C","second compound 3.16 µM, first compound 0.316 µM",31.2%
same,"viability, T/C","second compound 3.16 µM, first compound 1 µM",47.8%
same,"viability, T/C","second compound 3.16 µM, first compound 3.16 µM",32.4%
same,"viability, T/C","second compound 3.16 µM, first compound 10 µM",0.49%
same,"viability, T/C","second compound 10 µM, first compound 0.0316 µM",29.4%
same,"viability, T/C","second compound 10 µM, first compound 0.1 µM",33.3%
same,"viability, T/C","second compound 10 µM, first compound 0.316 µM",30%
same,"viability, T/C","second compound 10 µM, first compound 1 µM",30.2%
same,"viability, T/C","second compound 10 µM, first compound 3.16 µM",21.6%
same,"viability, T/C","second compound 10 µM, first compound 10 µM",0.36%
